Test results reported in publication PMC5778159 (Naunyn-Schmiedeberg's Archives of Pharmacology, 2017).
Counter-ions that a name gives are not always drawn.

Assays:
[1] = Isolated perfused rat liver (IPRL) study, recirculating; conditions: for form eliminated with bile: mass spectrometric analysis of rat bile, precursor ion 292 mode
Procedure: Rat livers were perfused in situ using PS-1 perfusion system from Harvard Apparatus-Hugo Sachs Electronics (HA-HSE). […] The temperature of the perfusion medium was thermostatically controlled at 37 °C. In each experiment, the common bile duct was cannulated with PE-10 tubing. […] Experiments were carried out in a recirculating manner with the total volume of perfusate equal 200 mL. […] Samples of bile were collected in pre-weighed Eppendorf vials and measured by gravimetric volume at the end of perfusion period, assuming a density of 1. Perfusate was collected from the reservoir at 5 min intervals up to 45 min.
Non-compartmental estimates of hepatic pharmacokinetic parameters were determined from the outflow concentration-time profiles. The hepatic extraction ratio (ERH) was calculated according to the following equation:2 ERH=CLH/Q where CLH is a hepatic clearance (per gram of liver) and Q is a perfusate flow (per gram of liver).
The apparent hepatobiliary clearance (CLb,app) was calculated as the cumulative amount of drug excreted in bile divided by the AUC0-t of the drug in the perfusate.

[2] = Pharmacokinetic study in rats after single i.v. or i.p. tianeptine, non-compartmental analysis; conditions: rat
Procedure: Male Wistar rats, 13–15 weeks of age and weighing between 200 and 220 g, were used in all the experiments. They were kept under conditions of constant temperature (21–25 °C) and a relative humidity of approximately 40–65% with a standard light/dark cycle. Animals were housed in the stainless steel cages with suspended wire-mesh floors and had free access to water and the commercial rodent chow.
Six rats were used in PK experiments, and 3 days prior to the experiment, rat jugular vein was cannulated allowing for the multiple blood sampling from a single animal. […] Plasma was harvested by centrifuging at 3000 r.p.m. for 10 min and stored at − 30°C until bioanalysis. Plasma samples (100 μL) were further processed as described in “Sample preparation” section.
(§1) Pharmacokinetic parameters were calculated by employing a non-compartmental approach, using Phoenix WinNonlin software v. 6.3 (Pharsight, USA). For i.v. administration, plasma concentration at time zero (C 0) was back-extrapolated using log-linear regression, while the maximum concentration after i.p. administration (C max) and the time to C max (t max) were obtained directly from the concentration-time data. The area under the mean plasma concentration versus time curve extrapolated to infinity (AUC0-inf) was estimated using the log/linear trapezoidal rule. AUMC0-inf was estimated by calculation of the total area under the first-moment curve by combining the trapezoid calculation of AUMC0-t and extrapolated area. The mean residence time (MRT) was calculated from AUMC0-inf/AUC0-inf. The terminal rate constant (λ z) was calculated by log-linear regression of the drug concentration data in the terminal phase and the terminal half-life (t 1/2) was calculated as 0.693/λ z. The systemic clearance (CL) was estimated from the administered dose divided by AUC0-inf. The volume of distribution at steady state (V ss) was calculated from D i.v.⋅AUMC/AUC^2, where D i.v is the dose administered i.v. in mg per kg of body weight. The concentration versus time profiles of the parent drug and metabolite following both routes of administration were also fitted simultaneously to the pharmacokinetic model with a metabolite compartment to obtain one set of parameters. During iteration process, the fraction of dose absorbed (F) was fixed to the value calculated using the following equation:1 F=AUC0−ti.p.∙Di.v./AUC0−ti.v.∙Di.p.
where AUC0-t is the area under the concentration versus time curve calculated to the last measured point and D is the dose administered.

[3] = humans ref Carlhant et al. [1990]; cited from earlier work
[4] = PK model with a metabolite compartment fitted simultaneously to i.v. and i.p. rat plasma data
Procedure: as §1

[5] = Stability of analytes in rat plasma (bench top, freezer, freeze/thaw, autosampler); assay type: in vitro ADME; conditions: bench top 2 h, − 30°C 90 days, autosampler 10°C up to 24 h
Procedure: The stability of analytes was determined in the battery of tests according to the appropriate guidelines. Namely, the bench top stability (for 2 h), freezer stability (at − 30°C for 90 days), freeze/thaw stability and post preparative autosampler stability (at 10°C up to 24 h). Samples were considered to be stable when 85–115% of the initial concentrations were found.

[6] = male, Wistar, in vivo, ip, 10 mg/kg
[7] = male, Wistar, in vivo, iv, 1 mg/kg

| SMILES | form eliminated with bile [1] | time at which C max attained ([2]; after both routes of administration (i.v. and i.p.) of tianeptine) [min] | t 0.5λz ([2]; after tianeptine i.p. 10 mg/kg, GM (90% CI), n = 3) | Cmax [2, 6] [ng/mL] | MRT [2, 6] [h] | Tmax [2, 6] [h] | k el [2, 6] [s⁻¹] | MRT [2, 7] [h] | Tmax [2, 7] [h] | half-life [2, 7] [h] | k el [2, 7] [s⁻¹] | overall exposure (AUC) to MC5 relative to tianeptine ([2]; regardless of the route of administration) [times] | time to C max [3] [h] | half-life ([4]; male, Wistar, in vivo) [h] | k el ([4]; male, Wistar, in vivo) [s⁻¹] | V m/f m ([4]; metabolite compartment, i.v. and i.p. fitted simultaneously) [L/kg] | metabolic ratio of MC5 (AUC0-t metabolite / AUC0-t tianeptine) ([1]; isolated perfused rat liver, mean ± SD) [%] | percent eliminated into the bile ([1]; up to 45 min of perfusion, mean ± SD) | stability in rat plasma [5] |
| --- | --- | --- | --- | --- | --- | --- | --- | --- | --- | --- | --- | --- | --- | --- | --- | --- | --- | --- | --- |
| CN1c2ccccc2C(NCCCCCCC(=O)O)c2ccc(Cl)cc2S1(=O)=O (centres unmarked) [Tianeptine, Tianeptine sodium salt, reference compound] | glucuronide and glutamine conjugates |  |  |  |  |  |  |  |  |  |  |  |  |  |  |  |  |  |  |
| CN1c2ccccc2C(NCCCCC(=O)O)c2ccc(Cl)cc2S1(=O)=O (centres unmarked) [MC5, tianeptine metabolite MC5 sodium salt] | glucuronide and glutamine conjugates | 30 | 3.69 (1.39–9.83) h | 2020 | 4.1 | 0.5 | 5.19e-05 | 8.28 | 0.4 | 7.53 | 2.5e-05 | 1.2 | 2.96 ± 0.95 | 1.66 | 0.000116 | 2.971 | 18.76 ± 8.11 | 3.07 ± 0.66 % of the administered dose | no stability related problems |
